Values after ≈ are worked out from the molar mass of the structure shown. Where a SMILES comes first, the peptide text is derived from it. The star is where a group is joined. X1 = CCC(C)CC(C)CCCC[C@@H](O)CC(=O)*
Tests used:
Staphylococcus aureus [1] = experiment: Antibacterial activity against methicillin-resistant Staphylococcus aureus; assay type: functional
Escherichia coli [2] = experiment: Antibacterial activity against Escherichia coli by broth dilution assay; assay type: functional
Bacillus subtilis [3] = experiment: Antibacterial activity against Bacillus subtilis by broth dilution assay; assay type: functional
Pseudomonas aeruginosa = experiment: Antibacterial activity against Pseudomonas aeruginosa by broth dilution assay; assay type: functional
Salmonella typhi = experiment: Antibacterial activity against Salmonella typhi by broth dilution assay; assay type: functional, Salmonella enterica subsp. enterica serovar Typhi; conditions: Salmonella enterica
Staphylococcus aureus [4] = experiment: Antibacterial activity against Staphylococcus aureus by broth dilution assay; assay type: functional
Micrococcus luteus = experiment: Antibacterial activity against Micrococcus luteus by serial dilution assay; assay type: functional
Proteus vulgaris = experiment: Antibacterial activity against Proteus vulgaris by serial dilution assay; assay type: functional
Bacillus subtilis [5] = experiment: Antibacterial activity against Bacillus subtilis by serial dilution assay; assay type: functional
Escherichia coli [6] = experiment: Antibacterial activity against Escherichia coli by serial dilution assay; assay type: functional
Staphylococcus aureus [7] = experiment: Antibacterial activity against Staphylococcus aureus ATCC 29213; assay type: functional
Bacillus subtilis [8] = experiment: Antibacterial activity against Bacillus subtilis SCSIO BS01; assay type: functional
Bacillus thuringiensis = experiment: Antibacterial activity against Bacillus thuringiensis SCSIO BT01; assay type: functional
Staphylococcus aureus [9] = experiment: Antibacterial activity against Staphylococcus aureus incubated for 18 hrs; assay type: functional
Enterococcus faecalis = experiment: Antibacterial activity against Enterococcus faecalis ATCC 29212; assay type: functional

CC(C)=CCc1cc(C(=O)Nc2c(O)c3ccc(O[C@@H]4OC(C)(C)[C@H](O)[C@@H](OC(N)=O)[C@H]4O)c(C)c3oc2=O)ccc1O
MIC (Staphylococcus aureus [1]): 8 to 16 µg/mL (≈ 13.4 to 26.7 µM)

C[C@@H]1CCCCC/C=C/[C@H](O)C[C@@H](O)C/C=C\C=C\[C@@H](O[C@@H]2O[C@H](CO)[C@@H](O)[C@H](O)[C@H]2O)C/C=C/C=C\C(=O)O1
MIC (Escherichia coli [2]): 0.06 µg/mL (≈ 0.106 µM) | MIC (Bacillus subtilis [3]): 0.06 µg/mL (≈ 0.106 µM) | MIC (Pseudomonas aeruginosa): 0.03 µg/mL (≈ 0.0529 µM) | MIC (Salmonella typhi): 0.03 µg/mL (≈ 0.0529 µM) | MIC (Staphylococcus aureus [4]): 0.06 µg/mL (≈ 0.106 µM)

C[C@@H]1CCC/C=C/C=C/[C@H](O)C[C@@H](O)C[C@@H]2O[C@@H]2/C=C/[C@@H](O)C/C=C/C=C\C(=O)O1 [GAGEOMACROLACTIN 1]
MIC (Escherichia coli [2]): 0.02 µg/mL (≈ 0.0478 µM) | MIC (Bacillus subtilis [3]): 0.01 µg/mL (≈ 0.0239 µM) | MIC (Pseudomonas aeruginosa): 0.01 µg/mL (≈ 0.0239 µM) | MIC (Salmonella typhi): 0.02 µg/mL (≈ 0.0478 µM) | MIC (Staphylococcus aureus [4]): 0.01 µg/mL (≈ 0.0239 µM)

O=C1N/C(=N\O)C(c2ccc(O)c([N+](=O)[O-])c2)=C1c1ccc(O)c([N+](=O)[O-])c1
MIC (Micrococcus luteus): 3 to 25 µg/mL (≈ 7.77 to 64.7 µM) | MIC (Proteus vulgaris): 3 to 25 µg/mL (≈ 7.77 to 64.7 µM) | MIC (Bacillus subtilis [5]): 3 to 25 µg/mL (≈ 7.77 to 64.7 µM) | MIC (Escherichia coli [6]): 3 to 25 µg/mL (≈ 7.77 to 64.7 µM)

CC[C@H]1[C@@H]2C=C[C@@H]3[C@H]4/C=C/CC(=O)NCCC[C@@H]5NC(=O)C(=C5O)C(=O)/C=C/[C@@H]4C[C@@H]3[C@H]2C[C@H]1C
MIC (Staphylococcus aureus [1]): 1 to 4 µg/mL (≈ 2.09 to 8.36 µM)

CC(C)=CCC/C(C)=C/C[C@@]12OC(C)(C)[C@H](Cl)C=C1C(=O)c1c(O)cc(O)cc1C2=O
MIC (Staphylococcus aureus [7]): 4 to 32 µg/mL (≈ 8.99 to 71.9 µM) | MIC (Bacillus subtilis [8]): 4 to 32 µg/mL (≈ 8.99 to 71.9 µM) | MIC (Bacillus thuringiensis): 4 to 32 µg/mL (≈ 8.99 to 71.9 µM)

C[C@@H]1O[C@](C)(C(=O)O)O[C@H]1/C=C/C=C/C=C/C(=O)O[C@H]1CC[C@H](c2ccc3c(c2O)C(=O)c2cc(O)c4c(c2C3=O)C(=O)[C@H](O)[C@](C)(O)C4)O[C@@H]1C
MIC (Staphylococcus aureus [9]): 2 to 6 µg/mL (≈ 2.78 to 8.35 µM)

O=C1NC(=O)C(c2ccc(O)c([N+](=O)[O-])c2)=C1c1ccccc1
MIC (Micrococcus luteus): 25 to 100 µg/mL (≈ 80.6 to 322 µM) | MIC (Proteus vulgaris): 25 to 100 µg/mL (≈ 80.6 to 322 µM) | MIC (Bacillus subtilis [5]): 25 to 100 µg/mL (≈ 80.6 to 322 µM) | MIC (Escherichia coli [6]): 25 to 100 µg/mL (≈ 80.6 to 322 µM)

CO[C@@H]1[C@@H](OC(N)=O)[C@@H](O)[C@H](Oc2ccc3c(O)c(NC(=O)c4cc(O)c(O)c(CC=C(C)C)c4)c(=O)oc3c2C)OC1(C)C
MIC (Staphylococcus aureus [1]): 8 to 16 µg/mL (≈ 12.7 to 25.5 µM)

O=C1N/C(=N\O)C(c2ccc(O)c([N+](=O)[O-])c2)=C1c1ccccc1
MIC (Micrococcus luteus): 3 to 25 µg/mL (≈ 9.22 to 76.9 µM) | MIC (Proteus vulgaris): 3 to 25 µg/mL (≈ 9.22 to 76.9 µM) | MIC (Bacillus subtilis [5]): 3 to 25 µg/mL (≈ 9.22 to 76.9 µM) | MIC (Escherichia coli [6]): 3 to 25 µg/mL (≈ 9.22 to 76.9 µM)

O=C1N/C(=N\O)C(c2ccccc2)=C1c1ccc(O)c([N+](=O)[O-])c1
MIC (Micrococcus luteus): 3 to 25 µg/mL (≈ 9.22 to 76.9 µM) | MIC (Proteus vulgaris): 3 to 25 µg/mL (≈ 9.22 to 76.9 µM) | MIC (Bacillus subtilis [5]): 3 to 25 µg/mL (≈ 9.22 to 76.9 µM) | MIC (Escherichia coli [6]): 3 to 25 µg/mL (≈ 9.22 to 76.9 µM)

CC[C@]1(O)C[C@@]2(O)c3c(c(C)cc(=O)n3C)C(=O)c3c(C)cc(=O)n1c32
MIC (Staphylococcus aureus [7]): 1 to 4 µg/mL (≈ 2.81 to 11.2 µM) | MIC (Enterococcus faecalis): 1 to 4 µg/mL (≈ 2.81 to 11.2 µM) | MIC (Bacillus thuringiensis): 1 to 4 µg/mL (≈ 2.81 to 11.2 µM)

CC(C)=CCC/C(C)=C/C[C@@]12OC(C)(C)[C@H](Cl)C[C@]1(Cl)C(=O)c1c(O)cc(O)cc1C2=O
MIC (Staphylococcus aureus [7]): ≤ 2 µg/mL | MIC (Bacillus subtilis [8]): ≤ 2 µg/mL | MIC (Bacillus thuringiensis): ≤ 2 µg/mL

CO[C@@H]1[C@@H](OC(N)=O)[C@@H](O)[C@H](Oc2ccc3c(O)c(NC(=O)c4ccc(O)c(CC=C(C)C)c4)c(=O)oc3c2C)OC1(C)C [NOVOBIOCIN]
MIC (Staphylococcus aureus [1]): 0.25 µg/mL (≈ 0.408 µM)

Cc1cc(=O)[nH]c2c1C(=O)c1c(C)cc(=O)n(C)c1C2=O
MIC (Staphylococcus aureus [7]): 1 to 4 µg/mL (≈ 3.52 to 14.1 µM) | MIC (Enterococcus faecalis): 1 to 4 µg/mL (≈ 3.52 to 14.1 µM) | MIC (Bacillus thuringiensis): 1 to 4 µg/mL (≈ 3.52 to 14.1 µM)

O=C1NC(=O)C(c2ccc(O)c([N+](=O)[O-])c2)=C1c1ccc(O)c([N+](=O)[O-])c1
MIC (Micrococcus luteus): 25 to 100 µg/mL (≈ 67.3 to 269 µM) | MIC (Proteus vulgaris): 25 to 100 µg/mL (≈ 67.3 to 269 µM) | MIC (Bacillus subtilis [5]): 25 to 100 µg/mL (≈ 67.3 to 269 µM) | MIC (Escherichia coli [6]): 25 to 100 µg/mL (≈ 67.3 to 269 µM)

O=C1NC(=O)C(c2ccc(O)cc2)=C1c1ccccc1
MIC (Micrococcus luteus): 25 to 100 µg/mL (≈ 94.2 to 377 µM) | MIC (Proteus vulgaris): 25 to 100 µg/mL (≈ 94.2 to 377 µM) | MIC (Bacillus subtilis [5]): 25 to 100 µg/mL (≈ 94.2 to 377 µM) | MIC (Escherichia coli [6]): 25 to 100 µg/mL (≈ 94.2 to 377 µM)

CC(C)=CCC/C(C)=C/C[C@]1(O)C(=O)c2cc(O)cc(O)c2C(=O)[C@@]1(Cl)CC=C(C)C
MIC (Staphylococcus aureus [7]): ≤ 2 µg/mL | MIC (Bacillus subtilis [8]): ≤ 2 µg/mL | MIC (Bacillus thuringiensis): ≤ 2 µg/mL

CCC(C)CC(C)CCCC[C@@H](O)CC(=O)N[C@@H](CCC(=O)O)C(=O)N[C@@H](CC(C)C)C(=O)N[C@@H](CC(C)C)C(=O)N[C@@H](CC(C)C)C(=O)O (some centres undefined) (X1-ELLL-OH)
MIC (Bacillus subtilis [3]): 0.03 µg/mL (≈ 0.0421 µM) | MIC (Pseudomonas aeruginosa): 0.01 µg/mL (≈ 0.014 µM) | MIC (Salmonella typhi): 0.01 µg/mL (≈ 0.014 µM) | MIC (Staphylococcus aureus [4]): 0.03 µg/mL (≈ 0.0421 µM)

CO[C@@H]1/C=C/[C@H](O)C[C@@H](O)C/C=C\C=C\[C@@H](O)C/C=C/C=C\C(=O)O[C@H](C)CCC[C@@H]1O
MIC (Escherichia coli [2]): ≥ 16 µg/mL | MIC (Bacillus subtilis [3]): ≥ 16 µg/mL

COC(=O)CCC(=O)O[C@@H]1/C=C/C=C\C[C@H](O)C[C@@H](O)/C=C/C=C/CCC[C@@H](C)OC(=O)/C=C\C=C\C1
MIC (Escherichia coli [2]): ≥ 16 µg/mL | MIC (Bacillus subtilis [3]): ≥ 16 µg/mL

CC(=O)[C@H]1[C@@H]2C=C[C@@H]3[C@H]4C/C=C\C(=O)NCCC[C@H]5C(O)=C(C(=O)/C=C/[C@@H]4C[C@@H]3[C@H]2C[C@H]1C)C(=O)N5C
MIC (Staphylococcus aureus [1]): 32 to 64 µg/mL (≈ 63.2 to 126 µM)

C[C@@H](O)CCC/C=C/C=C/[C@H](O)C[C@@H](O)C/C=C\C=C\[C@@H](O)C/C=C/C=C\C(=O)O
MIC (Escherichia coli [2]): 8 µg/mL (≈ 19 µM) | MIC (Bacillus subtilis [3]): 8 µg/mL (≈ 19 µM)

CCC(C)CCCCCCC[C@@H](O)CC(=O)N[C@@H](CCC(=O)O)C(=O)N[C@@H](CC(C)C)C(=O)O (some centres undefined)
MIC (Bacillus subtilis [3]): 0.01 µg/mL (≈ 0.0205 µM) | MIC (Pseudomonas aeruginosa): 0.03 µg/mL (≈ 0.0616 µM) | MIC (Salmonella typhi): 0.03 µg/mL (≈ 0.0616 µM) | MIC (Staphylococcus aureus [4]): 0.01 µg/mL (≈ 0.0205 µM)
